Measured values from PMC12571071, “Preventing neuropathy and improving anticancer chemotherapy with a carbazole-based compound” (Science Advances, 2025).
One block for each molecule: values may come before it.

What was measured:
HeLa cells [1] = experiment: HeLa cell viability (PrestoBlue) assay, 72 h; assay type: cell-based, human; settings: HeLa cells
Procedure: The human HeLa cell line was tested negative for mycoplasma contamination. HeLa cells were grown in RPMI 1640 medium supplemented with penicillin/streptomycin (100 μg/ml) and 10% FBS and maintained in a humidified incubator at 37°C and 5% CO2.
Cell viability was analyzed using the colorimetric PrestoBlue assay. Cells were seeded in 96-well microplates at a density of 7500 cells per well, allowed to adhere for 24 hours, and treated for 72 hours with either DMSO or drugs at indicated concentrations. PrestoBlue (10 μl) was then added to each well, followed by a 30-min incubation. Fluorescence was measured using a FLUOstar Optima microplate reader (excitation, 544 nm; emission, 580 nm; BMG Labtech).

NAMPT [2] = target: T1, NAMPT (Homo sapiens, UniProt P43490); experiment: NAMPT activity assay (coupled recombinant enzyme kit); assay type: biochemical; design: purchased Abcam ab221819; settings: OD450 at 60 min, normalized by subtraction of DMSO value
Excerpt: We next tested whether Carba1 could activate NAMPT in vitro. To that aim, we used a commercial recombinant human enzyme assay containing four enzymes: NAMPT, NAM nucleotide adenylyltransferase 1 (NMNAT1), alcohol dehydrogenase (ADH), and diaphorase (see Materials and Methods). In the presence of NAM and 5-phosphoribosyl-1-pyrophosphate (PRPP), NAMPT converts NAM to NMN, which is then converted into NAD^+ by NMNAT1, while ADH converts NAD^+ to NADH. Then, into a coupled-reaction, diaphorase converts NADH into NAD^+ and tetrazolium salt WST-1 {4-[3-(4-iodophenyl)-2-(4-nitro-phenyl)-2H-5-tetrazolio]-1,3-benzene sulfonate} to formazan, which can be detected at optical density at 450 nm (OD450). In practice, we proceeded in two steps. First, Carba1 and the different tested compounds were incubated for 15 min with NAMPT, NMNAT1, NAM, and PRPP to allow NAD^+ production. The reaction was then stopped with FK866 before adding ADH and diaphorase to convert the NAD^+ produced to NADH, and absorbance was monitored at regular intervals.
NAMPT activity was measured using the commercial kit, NAMPT Activity Assay, according to the manufacturer’s instructions. […] A mixture of water-soluble tetrazolium salts (WST-1), ADH, diaphorase, and ethanol was added and the absorbance (OD450) measured for 90 min using the microplate reader ClarioSTAR (BMG Labtech).
Target sequence in this assay (P43490 whole entry): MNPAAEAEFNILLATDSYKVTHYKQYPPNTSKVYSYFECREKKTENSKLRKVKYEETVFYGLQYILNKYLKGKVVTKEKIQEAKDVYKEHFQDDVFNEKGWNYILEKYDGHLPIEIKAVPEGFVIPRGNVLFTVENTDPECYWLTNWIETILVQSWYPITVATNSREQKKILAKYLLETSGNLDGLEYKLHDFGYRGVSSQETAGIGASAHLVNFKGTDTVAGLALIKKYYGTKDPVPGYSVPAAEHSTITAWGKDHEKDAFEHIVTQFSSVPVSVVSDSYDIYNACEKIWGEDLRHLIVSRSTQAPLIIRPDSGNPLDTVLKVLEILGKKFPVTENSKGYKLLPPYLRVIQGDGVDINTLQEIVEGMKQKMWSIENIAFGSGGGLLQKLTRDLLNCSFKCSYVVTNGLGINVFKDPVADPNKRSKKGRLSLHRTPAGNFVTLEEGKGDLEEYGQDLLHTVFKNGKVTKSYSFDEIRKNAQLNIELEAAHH

HeLa cells [3] = experiment: NAD(P)H autofluorescence imaging in live HeLa cells; assay type: cell-based, human; settings: 5 and 10 nM FK866, 24-hour incubation
Procedure: HeLa cells were seeded in four-chamber Labtek plates at 10,000 cells per well. After 48 hours, cells were preincubated with or without 12 μM Carba1 for 2 hours before addition of FK866 (5 and 10 nM). Drugs were added to phenol red–free DMEM medium, supplemented with 10% FBS 1% penicillin/streptomycin. After 24 hours of drug incubation, cells were imaged using a confocal microscope (LSM 710, Zeiss) with a two-photon excitation at 700 nm (Chameleon Vision Laser, Coherent) and a 40×/1.2 water-immersion objective. Detection was performed in single-photon mode using an avalanche photodiode detector (ConfoCor 3). NAD(P)H signal intensity was quantified as the mean signal per cell using ImageJ and normalized to the cell area.

NAMPT [4] = target: T1, NAMPT; experiment: AS-MS binding assay, NAMPT; settings: 10 μM compound, 3 μM NAMPT
Procedure: (§1) To this end, Carba1 or FK866 (positive control of NAMPT binding) was first incubated with NAMPT or carbonic anhydrase (CA; negative control). Protein-ligand complexes were separated from the unbound compounds by size exclusion chromatography (SEC). To quantify the protein-bound fraction, the complexes were then dissociated using reverse-phase chromatography, and the compounds were analyzed and quantified by mass spectrometry.
(§2) AS-MS was used to assess compound binding to NAMPT. AS-MS was performed by Edelris SAS (www.edelris.com/), which has developed the commercial AS-MS service “EDEN platform,” based on ([71]). Conditions consisted of protein (NAMPT and CA) at 3 μM and compounds (Carba1 and FK866) at 10 μM dissolved in corporate buffer.
Target sequence in this assay (P43490 whole entry, species assumed): as the sequence (P43490 whole entry) above

carbonic anhydrase (CA) = experiment: AS-MS binding assay, carbonic anhydrase (negative control); settings: 10 μM compound, 3 μM carbonic anhydrase
Procedure: as §1, with “spectrometry. By comparing the amounts of compound before (preSEC) and after (postSEC) SEC in the presence of CA or NAMPT, we assessed their ability to selectively bind to NAMPT.” for “spectrometry.”
as §2

SMILES: OC(CNc1ccccc1)Cn1c2ccc(Br)cc2c2cc(Br)ccc21 (stereo not drawn) [Compound P7C3, reference compound]
relief of FK866 cytotoxicity (HeLa cells [1]; coadministration with FK866): unable to counteract the toxic effect of FK866
activation of NAMPT in vitro (NAMPT [2]): No significant effect

GI50 (HeLa cells [1]; Homo sapiens, read-out: GI50 of FK866 alone): 2.4 ± 0.09 nM
SMILES: O=C(/C=C/c1cccnc1)NCCCCC1CCN(C(=O)c2ccccc2)CC1 [FK866, reference compound]
reduction of NAD(P)H production (HeLa cells [3]): ~ 20%
binding to NAMPT (AS-MS) (NAMPT [4]): recovered in the fraction containing NAMPT
binding to CA (AS-MS) (carbonic anhydrase (CA)): neither FK866 nor Carba1 was found to bind CA
